Results: US4942040A, “Pharmaceutical preparation and a process for its preparation” (priority 1987, dated 1990)

Experiments:
Type in all cases: physicochemical
[1] = Cumulative in vitro dissolution of felodipine and metoprolol (Example 1 tablet), USP dissolution apparatus No. 2, 50 rpm, pH 6.5 with 1% sodium dodecylsulphate; conditions: pH 6.5, 1% sodium dodecylsulphate
Method: Cumulative in vitro dissolution of felodipine and metoprolol in
a phosphate buffer of pH 6.5 with 1% sodium dodecylsulphate.
Method: USP dissolution apparatus No. 2, 50 rpm.

[2] = Cumulative in vitro dissolution of metoprolol (Reference example B tablet), USP dissolution apparatus No. 2, 50 rpm, phosphate buffer pH 6.8; conditions: phosphate buffer pH 6.8, 50 rpm
From the text: The dissolution rate in vitro from this tablet is shown in Table 3. |Cumulative in vitro dissolution of metoprolol in a phosphate buffer |pH 6.8. |Method: […]

[3] = Cumulative in vitro dissolution of nifedipine and metoprolol (Example 2 tablet), USP dissolution apparatus No. 2, 100 rpm, pH 6.5 with 1% sodium dodecylsulphate; conditions: pH 6.5, 1% sodium dodecylsulphate

Row | Percent released over time (h) ([1]; 0 h) | Percent released over time (h) ([1]; 2 h) | Percent released over time (h) ([1]; 4 h) | Percent released over time (h) ([1]; 8 h) | Percent released over time (h) ([1]; 12 h) | Percent released over time (h) ([1]; 16 h) | Percent released over time (h) ([1]; 20 h) | Percent released over time (h) ([2]; 0 h) | Percent released over time (h) ([2]; 1 h) | Percent released over time (h) ([2]; 4 h) | Percent released over time (h) ([2]; 8 h) | Percent released over time (h) ([2]; 12 h) | Percent released over time (h) ([2]; 20 h) | Percent released over time (h) ([3]; 0 h) | Percent released over time (h) ([3]; 2 h) | Percent released over time (h) ([3]; 4 h) | Percent released over time (h) ([3]; 8 h) | Percent released over time (h) ([3]; 12 h) | Percent released over time (h) ([3]; 16 h) | Percent released over time (h) ([3]; 20 h) | SMILES
1 | 0% | 14% | 32% | 64% | 88% | 96% | 98% |  |  |  |  |  |  |  |  |  |  |  |  |  | CCOC(=O)C1=C(C)NC(C)=C(C(=O)OC)C1c1cccc(Cl)c1Cl (stereo not drawn) [felodipine, 4-(2,3-dichlorophenyl)-1,4-dihydro-2,6-dimethyl-3,5-pyridinedicarboxylic acid ethyl methyl ester]
2 | 0% | 5% | 16% | 39% | 65% | 86% | 95% | 0% | 23% | 59% | 86% | 99% | 100% | 0% | 6% | 16% | 34% | 50% | 62% | 75% | COCCc1ccc(OCC(O)CNC(C)C)cc1 (stereo not drawn) [metoprolol]
